These results are taken from paper PMC12116762, “Topobexin targets the Topoisomerase II ATPase domain for beta isoform-selective inhibition and anthracycline cardioprotection” (Nature Communications, 2025).

Where “and” joins values, the source holds several entries; their conditions need not be identical. Identical values can stand only once.

Data set [1] deals with T1, recombinant human TOP2A (Homo sapiens, UniProt P11388).
T1 construct: Using recombinant full-length human TOP2A and TOP2B enzymes; YFP (N, cleaved yes); made in house; host or cells: HEK293F
As to the kind of experiment: In vitro ATPase activity of TOP2A (coupled assay). Conditions: n=3. The format is biochemical. On the procedure:
(§1) Topoisomerase proteins were diluted to 500 nM in storage buffer containing 20 mM HEPES pH 7.5, 500 mM NaCl, 0.5 mM TCEP, 25% glycerol, and 0.2 mg/mL BSA prior to use. A coupled assay was used to measure TOP2-catalyzed ATP hydrolysis in vitro[37] in Costar 96-well plates (Corning Incorporated). […] Reaction plates were pre-warmed to 30 °C for 5 min and ATP was added last to initiate the reaction. The reaction plate was placed in a CLARIOstarPlus plate reader (BMG Labtech) to measure NADH fluorescence at 30 °C every 30 s over 120 cycles using a 340-60 excitation filter and a 480-100 emission filter. Background fluorescence signals calculated from wells containing no ATP were subtracted from each measurement. The slope of NADH fluorescence decay in each well was calculated using the MARS software (BMG Labtech) and reaction wells that lacked topoisomerase inhibitor to account for photobleaching of NADH fluorescence served as background subtraction. Each presented data point was obtained from distinct sample. Values were normalized to untreated controls and plotted as a function of inhibitor concentration to determine IC50 values using Prism 9 (GraphPad).

Data set [2] addresses T2, recombinant human TOP2B (Homo sapiens, UniProt Q02880).
T2 construct: Using recombinant full-length human TOP2A and TOP2B enzymes; YFP (N, cleaved yes); made in house; host or cells: HEK293F
As to the kind of experiment: In vitro ATPase activity of TOP2B (coupled assay). The format is biochemical. The procedure: as §1

The test system of data set [3] is neonatal rat ventricular cardiomyocytes (NVCM). As to the kind of experiment: Protection against DAU-induced cytotoxicity (LDH release) in NVCM. The format is cell-based. On the set-up: key to Suppl.Fig.3 DAU-induced cytotoxicity (LDH release) in NVCM, mean of independent replicates / LDH release (DAU-induced cytotoxicity), mean of independent replicates: % of total LDH activity. The procedure: (§2) The protective effects of the BNS-22 and newly prepared compounds were evaluated using primary cultures of neonatal rat cardiomyocytes isolated in house as previously described. Hearts isolated from 1- to 3-day-old Wistar rats were minced in buffer (1.2 mM MgSO4 · 7H2O, 116 mM NaCl, 5.3 mM KCl, 1.13 mM NaH2PO4 · H2O, 20 mM 4-(2-hydroxyethyl)-1-piperazine ethanesulfonic acid (HEPES), glucose 1 mg/mL) on ice, then serially digested (20 min, six repetitions) at 37 °C with collagenase type II (60 U/mL, Gibco). After 2 h pre-plating in a 150 mm Petri dish per approximately 20 hearts to minimize non-myocyte contamination, cells were plated in 24-well gelatin-coated plates at a density of 400,000 cells per well. Cells were cultured at 37 °C and 5% CO2 in Dulbecco’s modified Eagle medium (DMEM)/ F12 culture medium supplemented with 10% horse serum, 5% fetal bovine serum (FBS), 20 mM sodium pyruvate, 50 U/mL penicillin, and 50 μg/mL streptomycin. Freshly isolated cells were left for 40 h to attach and form a culture of spontaneously beating cardiomyocytes, then the medium was changed to DMEM/F12 medium supplemented with 5% fetal bovine serum, 20 mM sodium pyruvate, 50 U/mL penicillin, and 50 μg/mL streptomycin. For the experiments, the medium was changed to serum- and pyruvate-free DMEM/F12 with 50 U/mL penicillin and 50 μg/mL streptomycin. Cardiomyocytes were pretreated with BNS-22 or new compounds for 3 h and then coincubated with DAU (1.2 µM) for another 3 h. After the DAU treatment period, the culture medium was exchanged for the drug-free DMEM/F12 with 50 U/mL penicillin and 50 μg/mL streptomycin for the 48 h follow-up. Experiments to determine the inherent toxicity of each compound studied follow the same schedule, only no DAU was added. Subsequently, the culture medium sample was taken from each well for evaluation of lactate dehydrogenase (LDH) activity. The total LDH activity of each sample for normalization was measured after 1 h of incubation at 37 °C in lysis buffer (0.1 M potassium phosphate, 1% Triton X-100, 1 mM dithiothreitol (DTT), 2 mM EDTA, pH 7.8, 15 min in RT). All samples were immediately analyzed in Tris HCl buffer (pH 8.9) containing 35 mM lactic acid and 5 mM NAD^+. The rate of NAD^+ reduction was monitored spectrophotometrically at 340 nm for 2 min. The slope of the linear region was calculated, and the results were expressed as a percentage of the total LDH. Each presented data point was obtained from distinct sample.

For data set [4] the test system is unchanged. Briefly: Inherent toxicity (LDH release) in NVCM. The format is cell-based. Further details: key to LDH release (inherent toxicity), mean of independent replicates: % of total LDH activity. Conditions: NVCM, Suppl.Fig.4. The procedure: as §2
The target in data set [5] is T3, YFP-TOP2A (Homo sapiens, UniProt P11388).
T3 construct: Using recombinant full-length human TOP2A and TOP2B enzymes; expressed in transfected cells; host or cells: HEK293F
Briefly: FRAP analysis, YFP-TOP2A in HEK293F cells. The format is cell-based. The settings on record: 15 min pre-incubation. The procedure: (§3) HEK293F cells were transfected with DNA plasmids encoding yellow-fluorescent protein (YFP)-TOP2A or YFP-TOP2B (the same DNA constructs for mammalian protein expression and purification) using Lipofectamine 2000 (Thermo Fisher Scientific). Cells were cultured for 24 h post transfection and YFP signals were confirmed prior to FRAP experiments. Transfected cells were plated on glass-bottomed culture dishes (Matsunami) and rested overnight. The next day, each dish was pre-incubated with the indicated inhibitor treatment or DMSO control for 15 min prior to FRAP experiment. Each set of experiments was repeated on at least two different days using newly transfected cells each time. Live-cell imaging was done using a LSM 980 microscope (Carl Zeiss Microscopy, LLC). YFP signal was excited at 508 nm at 2% laser power and detected through a 516–604 nm range. A small area within the nucleus (purple box) is manually selected for fluorescence bleaching at 100% laser power for 50 iterations. Inhibition of TOP2 by obex inhibitors was detected by impairment in fluorescence recovery at 15 s post bleaching, as a lack of inhibition allows for TOP2 diffusion throughout the nucleus.

The target in data set [6] is T4, YFP-TOP2B (Homo sapiens, UniProt Q02880).
T4 construct: Using recombinant full-length human TOP2A and TOP2B enzymes; expressed in transfected cells; host or cells: HEK293F
As to the kind of experiment: FRAP analysis, YFP-TOP2B in HEK293F cells. Conditions: 15 min pre-incubation. The format is cell-based. On the procedure: as §3

Data set [7] addresses T5, TOP2A-DNA covalent complex (Homo sapiens, UniProt P11388).
T5 construct: endogenous in cells; host or cells: HEK293F
As to the kind of experiment: RADAR assay, etoposide-induced TOP2A-DNA covalent complex in HEK293F cells. The format is cell-based. Conditions: etoposide 5 μM alone; independent replicates. On the procedure:
(§4) HEK293F cells were plated at 3 × 10^5 cells per well and grown overnight. […] Upon removal of media, cells in each well were immediately lysed with 750 µL DNAzol (Molecular Research Center, Inc.) and the DNA was precipitated by addition of 375 µL of 100% ethanol. This step was then repeated to eliminate protein aggregates. Precipitate from each sample was pelleted via centrifugation at 4 °C and max speed for 5 min. The pellets were washed twice with buffer containing 20 mM Tris pH 7.5, 1 mM EDTA pH 8.0, 50 mM NaCl, 50% EtOH, and at the end of each wash, centrifugation at 4000 × g for 2 min was repeated to isolate the DNA pellets. The pellets were washed in 75% EtOH and then collected by centrifugation at 4 °C and max speed for 5 min. The supernatant was removed via pipetting, and the remaining pellets were air dried for 5 min before 50 µL 8 mM NaOH and 0.1% Tween-20 was added to each pellet. Once no visible precipitate remained, each mixture was supplemented with 5 µL of Benzonase buffer containing 500 mM Tris pH 8.0, 10 mM MgCl2, 1/1000 Roche complete protease inhibitor cocktail (Millipore Sigma) and 40 units Benzonase (Millipore Sigma) followed by 30 to 60 min incubation at 37 °C until the pellets were fully dissolved. The DNA content from each sample was quantified on a nanodrop, and 10 µg of DNA was diluted to a final volume of 200 µL in 8 mM NaOH and 0.1% Tween. The samples were applied over the Whatman Minifold I dot blot apparatus (Cytiva) and collected on a PVDF membrane (Thermo Fisher Scientific). The membrane was washed three times with 8 mM NaOH and 0.1% Tween-20 solution prior to removal and blocking with the same wash solution containing 1 mg/mL BSA. Western blotting was carried out on an iBind (Thermo Fisher Scientific) and TOP2 proteins were detected using isoform-specific antibody against full length TOP2A (1:250 dilution; HT2A21, Inspiralis) and TOP2B (1:500 dilution; 611493, BD Biosciences) and visualized with anti-rabbit (1:1000 dilution; 926-68071, LI-COR Bio) and anti-mouse (1:1000 dilution; 926-32210, LI-COR Bio) secondary antibodies in iBind running buffer. The blots were imaged on a LI-COR Odyssey Fc and analysed using ImageStudio. Each presented data point was obtained from distinct sample.

The target of data set [8] is T6, TOP2B-DNA covalent complex (Homo sapiens, UniProt Q02880).
T6 construct: endogenous in cells; host or cells: HEK293F
Briefly: RADAR assay, etoposide-induced TOP2B-DNA covalent complex in HEK293F cells. The format is cell-based. The settings on record: etoposide 5 μM alone; independent replicates. On the procedure:
as §4

T2 sequence (Q02880 1-1621 isoform Q02880-2): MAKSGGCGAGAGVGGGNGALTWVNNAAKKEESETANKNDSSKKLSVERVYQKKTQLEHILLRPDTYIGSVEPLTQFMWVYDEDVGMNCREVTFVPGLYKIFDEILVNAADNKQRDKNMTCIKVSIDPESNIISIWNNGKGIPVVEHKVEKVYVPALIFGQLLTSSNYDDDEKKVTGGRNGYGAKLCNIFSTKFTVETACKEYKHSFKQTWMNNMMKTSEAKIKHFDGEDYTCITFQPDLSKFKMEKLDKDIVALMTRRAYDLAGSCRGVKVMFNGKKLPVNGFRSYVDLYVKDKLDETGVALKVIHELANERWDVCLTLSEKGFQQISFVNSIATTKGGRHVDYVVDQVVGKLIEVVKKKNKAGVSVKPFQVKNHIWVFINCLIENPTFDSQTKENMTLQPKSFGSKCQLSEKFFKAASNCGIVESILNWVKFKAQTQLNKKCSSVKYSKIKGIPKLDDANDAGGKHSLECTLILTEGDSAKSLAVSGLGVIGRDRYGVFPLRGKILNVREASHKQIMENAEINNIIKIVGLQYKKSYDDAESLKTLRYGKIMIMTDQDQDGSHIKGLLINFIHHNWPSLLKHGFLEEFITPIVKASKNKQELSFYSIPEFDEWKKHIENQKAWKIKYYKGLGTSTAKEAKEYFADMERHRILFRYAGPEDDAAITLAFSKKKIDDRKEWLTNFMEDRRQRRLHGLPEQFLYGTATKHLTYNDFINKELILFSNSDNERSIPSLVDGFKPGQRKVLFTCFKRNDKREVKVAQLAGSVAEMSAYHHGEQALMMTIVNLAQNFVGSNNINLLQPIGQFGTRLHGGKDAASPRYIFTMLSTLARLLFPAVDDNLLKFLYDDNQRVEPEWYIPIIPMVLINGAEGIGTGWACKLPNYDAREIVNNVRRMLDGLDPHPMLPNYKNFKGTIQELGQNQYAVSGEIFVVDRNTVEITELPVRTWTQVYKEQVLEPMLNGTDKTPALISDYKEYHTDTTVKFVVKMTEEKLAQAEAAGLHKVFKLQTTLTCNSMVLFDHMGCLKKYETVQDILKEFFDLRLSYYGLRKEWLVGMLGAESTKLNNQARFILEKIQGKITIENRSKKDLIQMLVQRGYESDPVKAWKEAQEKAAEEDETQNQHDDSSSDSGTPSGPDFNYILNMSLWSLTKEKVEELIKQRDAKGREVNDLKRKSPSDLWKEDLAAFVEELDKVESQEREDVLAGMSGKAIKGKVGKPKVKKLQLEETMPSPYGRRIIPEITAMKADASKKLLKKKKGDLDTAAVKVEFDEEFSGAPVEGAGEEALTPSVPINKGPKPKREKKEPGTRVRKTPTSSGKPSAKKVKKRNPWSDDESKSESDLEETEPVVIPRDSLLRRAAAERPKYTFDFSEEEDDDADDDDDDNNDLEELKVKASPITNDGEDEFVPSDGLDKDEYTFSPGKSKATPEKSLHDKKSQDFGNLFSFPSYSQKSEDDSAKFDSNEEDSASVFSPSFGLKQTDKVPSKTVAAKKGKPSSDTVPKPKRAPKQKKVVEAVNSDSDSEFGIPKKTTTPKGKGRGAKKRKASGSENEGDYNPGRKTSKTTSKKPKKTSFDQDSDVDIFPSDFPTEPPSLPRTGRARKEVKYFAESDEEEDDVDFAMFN
T5 sequence (P11388 whole entry, one chain of several): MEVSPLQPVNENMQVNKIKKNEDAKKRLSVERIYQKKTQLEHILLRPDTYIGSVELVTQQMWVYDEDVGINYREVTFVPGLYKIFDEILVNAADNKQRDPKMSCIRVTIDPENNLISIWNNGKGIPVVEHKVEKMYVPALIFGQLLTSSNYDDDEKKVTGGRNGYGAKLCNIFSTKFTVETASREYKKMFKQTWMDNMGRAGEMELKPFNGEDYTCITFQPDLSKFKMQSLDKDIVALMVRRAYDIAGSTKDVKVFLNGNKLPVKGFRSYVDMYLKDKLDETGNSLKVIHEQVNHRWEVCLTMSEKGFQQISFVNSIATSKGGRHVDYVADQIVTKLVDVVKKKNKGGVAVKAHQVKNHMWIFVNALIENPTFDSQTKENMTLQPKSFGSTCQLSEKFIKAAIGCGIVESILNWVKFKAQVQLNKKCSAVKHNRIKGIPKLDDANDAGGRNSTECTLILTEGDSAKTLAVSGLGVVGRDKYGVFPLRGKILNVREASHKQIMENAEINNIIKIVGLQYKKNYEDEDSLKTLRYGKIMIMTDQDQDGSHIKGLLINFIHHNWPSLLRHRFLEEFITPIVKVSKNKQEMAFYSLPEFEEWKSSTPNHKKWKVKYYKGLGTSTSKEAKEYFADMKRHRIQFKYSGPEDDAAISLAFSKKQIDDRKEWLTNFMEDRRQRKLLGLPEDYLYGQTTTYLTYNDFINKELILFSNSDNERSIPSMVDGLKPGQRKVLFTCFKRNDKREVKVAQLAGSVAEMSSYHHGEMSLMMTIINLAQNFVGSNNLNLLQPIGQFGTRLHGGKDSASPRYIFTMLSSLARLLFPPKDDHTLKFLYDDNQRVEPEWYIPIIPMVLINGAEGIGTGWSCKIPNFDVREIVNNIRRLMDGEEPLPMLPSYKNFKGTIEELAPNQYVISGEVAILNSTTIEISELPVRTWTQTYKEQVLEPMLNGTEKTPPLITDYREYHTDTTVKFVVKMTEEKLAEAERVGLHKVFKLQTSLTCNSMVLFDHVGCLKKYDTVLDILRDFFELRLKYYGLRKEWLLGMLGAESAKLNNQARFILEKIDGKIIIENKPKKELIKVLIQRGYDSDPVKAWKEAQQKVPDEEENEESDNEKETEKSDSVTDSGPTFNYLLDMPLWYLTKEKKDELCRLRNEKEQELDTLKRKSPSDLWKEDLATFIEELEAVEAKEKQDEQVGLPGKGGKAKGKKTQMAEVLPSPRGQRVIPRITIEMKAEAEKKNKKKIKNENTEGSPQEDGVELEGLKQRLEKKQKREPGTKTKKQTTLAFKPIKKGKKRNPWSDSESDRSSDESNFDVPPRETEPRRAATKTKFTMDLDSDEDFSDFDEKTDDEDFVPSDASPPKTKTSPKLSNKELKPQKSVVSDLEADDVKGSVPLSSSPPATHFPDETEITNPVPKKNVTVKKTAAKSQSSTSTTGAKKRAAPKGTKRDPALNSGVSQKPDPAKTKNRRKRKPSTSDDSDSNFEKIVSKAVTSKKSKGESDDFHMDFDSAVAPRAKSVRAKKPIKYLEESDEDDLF
T6 sequence (Q02880 2-1626 limits assumed, one chain of several): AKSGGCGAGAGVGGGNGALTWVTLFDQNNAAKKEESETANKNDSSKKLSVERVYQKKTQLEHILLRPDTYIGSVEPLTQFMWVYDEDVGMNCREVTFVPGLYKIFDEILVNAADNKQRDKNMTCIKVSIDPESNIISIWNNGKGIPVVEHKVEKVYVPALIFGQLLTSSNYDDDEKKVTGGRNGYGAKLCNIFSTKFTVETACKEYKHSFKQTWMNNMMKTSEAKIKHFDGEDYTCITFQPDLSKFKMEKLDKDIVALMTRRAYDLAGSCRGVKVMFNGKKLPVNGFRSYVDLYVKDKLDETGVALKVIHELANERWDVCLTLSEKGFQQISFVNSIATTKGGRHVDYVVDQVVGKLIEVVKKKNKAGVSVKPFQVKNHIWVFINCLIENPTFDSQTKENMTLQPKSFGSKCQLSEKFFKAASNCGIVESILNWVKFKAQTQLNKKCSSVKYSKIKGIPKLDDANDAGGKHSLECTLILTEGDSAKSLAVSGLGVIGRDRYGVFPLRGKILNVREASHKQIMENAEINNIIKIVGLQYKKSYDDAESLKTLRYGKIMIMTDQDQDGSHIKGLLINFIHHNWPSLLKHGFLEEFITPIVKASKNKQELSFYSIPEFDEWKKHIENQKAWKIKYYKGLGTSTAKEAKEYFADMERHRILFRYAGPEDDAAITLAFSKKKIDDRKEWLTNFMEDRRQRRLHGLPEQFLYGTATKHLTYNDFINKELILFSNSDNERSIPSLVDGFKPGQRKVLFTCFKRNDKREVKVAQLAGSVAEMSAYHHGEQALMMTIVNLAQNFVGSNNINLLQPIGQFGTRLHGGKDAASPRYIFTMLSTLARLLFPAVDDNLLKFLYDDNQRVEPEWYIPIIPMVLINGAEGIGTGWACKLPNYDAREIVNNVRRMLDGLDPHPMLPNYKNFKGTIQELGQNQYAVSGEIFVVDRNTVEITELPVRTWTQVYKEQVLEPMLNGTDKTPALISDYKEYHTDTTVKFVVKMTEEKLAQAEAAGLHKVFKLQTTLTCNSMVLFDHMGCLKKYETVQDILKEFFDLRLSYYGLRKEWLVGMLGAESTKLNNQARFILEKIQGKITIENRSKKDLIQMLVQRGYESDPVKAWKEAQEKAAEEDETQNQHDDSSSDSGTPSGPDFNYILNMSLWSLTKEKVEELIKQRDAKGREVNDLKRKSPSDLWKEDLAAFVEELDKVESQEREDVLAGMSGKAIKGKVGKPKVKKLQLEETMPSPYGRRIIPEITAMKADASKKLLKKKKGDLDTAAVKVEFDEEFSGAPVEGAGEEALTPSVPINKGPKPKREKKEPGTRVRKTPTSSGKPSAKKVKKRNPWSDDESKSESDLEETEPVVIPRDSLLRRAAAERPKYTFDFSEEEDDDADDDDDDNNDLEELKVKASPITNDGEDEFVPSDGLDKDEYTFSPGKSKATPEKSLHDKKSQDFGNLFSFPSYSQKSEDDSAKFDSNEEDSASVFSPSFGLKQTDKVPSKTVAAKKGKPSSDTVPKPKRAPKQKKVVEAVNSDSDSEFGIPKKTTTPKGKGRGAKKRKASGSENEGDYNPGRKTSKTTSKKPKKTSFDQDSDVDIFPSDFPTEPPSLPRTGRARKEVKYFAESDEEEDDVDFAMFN
T4 sequence (Q02880 1-1621 isoform Q02880-2): as the sequence (Q02880 1-1621 isoform Q02880-2) above
T1 sequence (P11388 whole entry): as the sequence (P11388 whole entry, one chain of several) above
T3 sequence (P11388 whole entry): as the sequence (P11388 whole entry, one chain of several) above

In the case of `CCCc1cc(=O)oc2c(C(=O)N3CCCc4ccccc43)c(O)ccc12` [2c], the values for the concentration for half-maximal inhibition (IC50) in data set [1] and in data set [2] (n=3) were 690 nM and 660 nM, respectively. Also, the “relative inhibition of TOP2A vs TOP2B” value in data set [2] (ATPase) is “inhibited TOP2A and TOP2B with equal efficacy”. Moreover, the “SRbeta (SRTOP2B), TOP2 ATPase activity” value in data set [2] (TOP2A IC50 divided by TOP2B IC50) came to 1.0. In addition, the minimal effective concentration in data set [3] (Rattus norvegicus, Cardiomyocyte, NVCM, protection against DAU 1.2 µM, n=4, read-out: LEC = lowest effective concentration) was found to be 10 µM. Moreover, the “Suppl.Fig.3 DAU-induced cytotoxicity (LDH release) in NVCM, mean of independent replicates” value worked out at 33.3224 in data set [3] (compound 1 µM + DAU 1.2 µM), 29.0836 in data set [3] (compound 10 µM + DAU 1.2 µM), 25.5275 in data set [3] (compound 30 µM + DAU 1.2 µM) and 35.3978 in data set [3] (compound 100 µM + DAU 1.2 µM). For the same compound, the “LDH release (inherent toxicity), mean of independent replicates” value is 16.6801 in data set [4] (compound alone 1 µM), 16.3877 in data set [4] (compound alone 10 µM), 17.2005 in data set [4] (compound alone 30 µM) and 29.603 in data set [4] (compound alone 100 µM). For the same compound, in data set [5], the “fluorescence recovery of YFP-TOP2A (FRAP)” value is listed as “inhibits fluorescence recovery”. The “fluorescence recovery of YFP-TOP2B (FRAP)” value in data set [6] was “inhibits fluorescence recovery”.
With `COc1cc([C@@H]2c3cc4c(cc3[C@@H](O[C@@H]3O[C@@H]5CO[C@@H](C)O[C@H]5[C@H](O)[C@H]3O)[C@H]3COC(=O)[C@H]23)OCO4)cc(OC)c1O` [etoposide, reference compound], the TOP2A spot intensity in data set [7] is 63.37 and 136 and 84.27 and 127.1 and 89.2. For the same compound, the TOP2B spot intensity in data set [8] was 173.9 and 77.69 and 59.37 and 61.46.
